Measured values reported in the kinase profiling compilation of Christmann-Franck et al. (2016).

Legend:
Experiment in all cases: KINOMEscan competition binding
[1] = target: MAP3K3 (human) (UniProt Q99759)
[2] = target: RPS6KA5 KD1 (human) (UniProt O75582)
[3] = target: TYK2 JH2 pseudokinase (human) (UniProt P29597)
[4] = target: EPHB6 (human) (UniProt O15197)
[5] = target: ERBB2 (human) (UniProt P04626)
[6] = target: PI4KB (human) (UniProt Q9UBF8)
[7] = target: BRAF (human) (UniProt P15056)
[8] = target: CDK18 (human) (UniProt Q07002)
[9] = target: DYRK1A (human) (UniProt Q13627)
[10] = target: STK39 (human) (UniProt Q9UEW8)
[11] = target: FLT4 (human) (UniProt P35916)
[12] = target: NTRK2 (human) (UniProt Q16620)
[13] = target: CDK11B (human) (UniProt P21127)
Chain of CDK11B (human) (P21127 whole entry, looked up): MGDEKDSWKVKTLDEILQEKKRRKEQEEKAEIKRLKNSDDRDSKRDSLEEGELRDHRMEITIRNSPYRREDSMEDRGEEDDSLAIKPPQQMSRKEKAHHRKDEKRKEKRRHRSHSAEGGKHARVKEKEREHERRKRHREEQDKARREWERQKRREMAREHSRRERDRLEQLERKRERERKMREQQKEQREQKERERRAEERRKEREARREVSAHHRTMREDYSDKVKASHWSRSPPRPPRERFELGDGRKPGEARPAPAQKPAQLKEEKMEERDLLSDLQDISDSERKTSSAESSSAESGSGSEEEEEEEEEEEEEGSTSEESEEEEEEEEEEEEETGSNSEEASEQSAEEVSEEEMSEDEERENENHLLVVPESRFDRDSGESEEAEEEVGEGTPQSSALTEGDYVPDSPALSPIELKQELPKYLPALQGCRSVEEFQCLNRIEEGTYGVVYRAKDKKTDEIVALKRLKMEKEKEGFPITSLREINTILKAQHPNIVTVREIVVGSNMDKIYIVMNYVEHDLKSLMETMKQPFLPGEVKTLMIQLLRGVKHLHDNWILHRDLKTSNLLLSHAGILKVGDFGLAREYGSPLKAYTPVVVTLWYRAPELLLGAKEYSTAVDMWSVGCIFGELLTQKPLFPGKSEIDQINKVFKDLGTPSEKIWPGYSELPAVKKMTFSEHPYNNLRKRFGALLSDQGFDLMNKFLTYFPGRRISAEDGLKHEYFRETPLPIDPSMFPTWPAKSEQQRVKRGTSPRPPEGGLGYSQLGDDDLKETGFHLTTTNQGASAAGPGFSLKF

[14] = target: MAP2K2 (human) (UniProt P36507)
[15] = target: PIK3CA (human), P42336 [H1047Y]
[16] = target: HIPK4 (human) (UniProt Q8NE63)
[17] = target: EPHB4 (human) (UniProt P54760)
[18] = target: EIF2AK4 KD2 (human), Q9P2K8 [S808G]
[19] = target: MATK (human) (UniProt P42679)
[20] = target: PRKAA2 (human) (UniProt P54646)
[21] = target: HIPK3 (human) (UniProt Q9H422)
Chain of HIPK3 (human) (Q9H422 whole entry, looked up): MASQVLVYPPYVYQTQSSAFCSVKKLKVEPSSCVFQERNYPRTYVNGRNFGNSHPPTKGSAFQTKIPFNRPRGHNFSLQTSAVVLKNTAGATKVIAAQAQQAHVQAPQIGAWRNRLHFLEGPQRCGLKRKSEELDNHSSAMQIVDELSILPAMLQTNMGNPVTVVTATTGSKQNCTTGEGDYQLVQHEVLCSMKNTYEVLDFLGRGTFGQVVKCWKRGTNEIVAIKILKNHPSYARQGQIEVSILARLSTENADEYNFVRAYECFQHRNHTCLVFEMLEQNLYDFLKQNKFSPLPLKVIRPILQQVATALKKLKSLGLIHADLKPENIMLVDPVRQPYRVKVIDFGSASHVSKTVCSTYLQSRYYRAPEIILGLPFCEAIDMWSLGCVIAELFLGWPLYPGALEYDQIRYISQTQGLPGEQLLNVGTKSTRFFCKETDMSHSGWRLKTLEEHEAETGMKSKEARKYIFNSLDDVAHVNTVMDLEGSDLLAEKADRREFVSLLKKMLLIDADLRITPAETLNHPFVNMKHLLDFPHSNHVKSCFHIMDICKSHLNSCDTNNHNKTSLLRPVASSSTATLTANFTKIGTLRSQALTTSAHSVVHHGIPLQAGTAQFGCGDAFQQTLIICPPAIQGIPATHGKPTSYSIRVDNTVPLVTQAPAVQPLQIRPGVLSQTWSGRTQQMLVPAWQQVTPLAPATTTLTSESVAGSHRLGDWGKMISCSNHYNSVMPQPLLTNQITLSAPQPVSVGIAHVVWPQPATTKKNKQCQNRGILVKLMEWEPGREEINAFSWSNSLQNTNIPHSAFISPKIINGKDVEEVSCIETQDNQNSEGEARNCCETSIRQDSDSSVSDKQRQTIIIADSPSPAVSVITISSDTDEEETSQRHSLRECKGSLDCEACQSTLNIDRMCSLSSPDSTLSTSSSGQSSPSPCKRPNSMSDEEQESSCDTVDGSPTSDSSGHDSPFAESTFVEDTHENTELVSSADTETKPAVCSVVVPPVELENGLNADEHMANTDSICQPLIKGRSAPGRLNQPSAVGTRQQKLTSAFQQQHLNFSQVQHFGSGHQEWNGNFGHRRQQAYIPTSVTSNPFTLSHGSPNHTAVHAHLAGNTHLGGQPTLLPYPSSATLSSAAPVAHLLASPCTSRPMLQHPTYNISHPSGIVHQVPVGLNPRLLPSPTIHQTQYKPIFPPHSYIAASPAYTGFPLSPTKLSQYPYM

[22] = target: ALK (human) (UniProt Q9UM73)
[23] = target: EPHB1 (human) (UniProt P54762)
[24] = target: JAK2 JH1 catalytic (human) (UniProt O60674)
[25] = target: MKNK1 (human) (UniProt Q9BUB5)
[26] = target: EPHA3 (human) (UniProt P29320)
[27] = target: ROCK2 (human) (UniProt O75116)
[28] = target: MAPK11 (human) (UniProt Q15759)
[29] = target: TAOK1 (human) (UniProt Q7L7X3)
[30] = target: RIPK4 (human) (UniProt P57078)
[31] = target: PRKACB (human) (UniProt P22694)
[32] = target: PIM1 (human) (UniProt P11309)
[33] = target: ULK3 (human) (UniProt Q6PHR2)
[34] = target: ABL1 (human), P00519 [H396P]
[35] = target: TAOK3 (human) (UniProt Q9H2K8)
[36] = target: MYLK3 (human) (UniProt Q32MK0)
[37] = target: MAP4K4 (human) (UniProt O95819)
[38] = target: MAP2K1 (human) (UniProt Q02750)
[39] = target: CDK5 (human) (UniProt Q00535)
[40] = target: MKNK2 (human) (UniProt Q9HBH9)
Chain of MKNK2 (human) (Q9HBH9 whole entry, looked up): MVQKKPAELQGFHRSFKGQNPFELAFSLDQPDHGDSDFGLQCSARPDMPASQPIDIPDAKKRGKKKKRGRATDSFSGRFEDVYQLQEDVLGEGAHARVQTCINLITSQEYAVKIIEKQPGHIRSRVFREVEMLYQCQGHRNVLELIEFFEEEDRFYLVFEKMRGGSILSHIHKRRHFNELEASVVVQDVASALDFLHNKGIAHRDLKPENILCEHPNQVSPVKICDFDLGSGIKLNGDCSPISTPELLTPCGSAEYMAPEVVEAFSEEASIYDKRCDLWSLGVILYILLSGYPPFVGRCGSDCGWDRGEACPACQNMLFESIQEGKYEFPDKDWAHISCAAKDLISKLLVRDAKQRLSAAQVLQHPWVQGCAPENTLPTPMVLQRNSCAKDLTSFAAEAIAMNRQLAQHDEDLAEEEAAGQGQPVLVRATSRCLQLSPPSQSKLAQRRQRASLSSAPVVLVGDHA

Chain of MAP3K3 (human) (Q99759 whole entry, looked up): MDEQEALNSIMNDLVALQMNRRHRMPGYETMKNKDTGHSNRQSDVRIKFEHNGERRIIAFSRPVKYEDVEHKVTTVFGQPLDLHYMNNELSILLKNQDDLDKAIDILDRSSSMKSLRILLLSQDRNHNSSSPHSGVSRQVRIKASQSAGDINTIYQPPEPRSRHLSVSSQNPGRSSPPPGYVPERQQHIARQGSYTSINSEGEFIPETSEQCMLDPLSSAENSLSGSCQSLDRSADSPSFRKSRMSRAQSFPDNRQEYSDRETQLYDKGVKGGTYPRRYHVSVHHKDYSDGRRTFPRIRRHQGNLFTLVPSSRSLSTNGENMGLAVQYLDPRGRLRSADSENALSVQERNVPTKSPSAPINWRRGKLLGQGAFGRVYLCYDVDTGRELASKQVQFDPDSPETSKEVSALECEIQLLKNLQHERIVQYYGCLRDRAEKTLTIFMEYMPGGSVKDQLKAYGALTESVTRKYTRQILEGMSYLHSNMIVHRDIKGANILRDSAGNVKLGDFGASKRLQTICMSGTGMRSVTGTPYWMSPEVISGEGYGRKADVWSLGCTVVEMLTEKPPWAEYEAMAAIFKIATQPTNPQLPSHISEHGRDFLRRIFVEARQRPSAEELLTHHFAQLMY
Chain of TYK2 JH2 pseudokinase (human) (P29597 whole entry, looked up): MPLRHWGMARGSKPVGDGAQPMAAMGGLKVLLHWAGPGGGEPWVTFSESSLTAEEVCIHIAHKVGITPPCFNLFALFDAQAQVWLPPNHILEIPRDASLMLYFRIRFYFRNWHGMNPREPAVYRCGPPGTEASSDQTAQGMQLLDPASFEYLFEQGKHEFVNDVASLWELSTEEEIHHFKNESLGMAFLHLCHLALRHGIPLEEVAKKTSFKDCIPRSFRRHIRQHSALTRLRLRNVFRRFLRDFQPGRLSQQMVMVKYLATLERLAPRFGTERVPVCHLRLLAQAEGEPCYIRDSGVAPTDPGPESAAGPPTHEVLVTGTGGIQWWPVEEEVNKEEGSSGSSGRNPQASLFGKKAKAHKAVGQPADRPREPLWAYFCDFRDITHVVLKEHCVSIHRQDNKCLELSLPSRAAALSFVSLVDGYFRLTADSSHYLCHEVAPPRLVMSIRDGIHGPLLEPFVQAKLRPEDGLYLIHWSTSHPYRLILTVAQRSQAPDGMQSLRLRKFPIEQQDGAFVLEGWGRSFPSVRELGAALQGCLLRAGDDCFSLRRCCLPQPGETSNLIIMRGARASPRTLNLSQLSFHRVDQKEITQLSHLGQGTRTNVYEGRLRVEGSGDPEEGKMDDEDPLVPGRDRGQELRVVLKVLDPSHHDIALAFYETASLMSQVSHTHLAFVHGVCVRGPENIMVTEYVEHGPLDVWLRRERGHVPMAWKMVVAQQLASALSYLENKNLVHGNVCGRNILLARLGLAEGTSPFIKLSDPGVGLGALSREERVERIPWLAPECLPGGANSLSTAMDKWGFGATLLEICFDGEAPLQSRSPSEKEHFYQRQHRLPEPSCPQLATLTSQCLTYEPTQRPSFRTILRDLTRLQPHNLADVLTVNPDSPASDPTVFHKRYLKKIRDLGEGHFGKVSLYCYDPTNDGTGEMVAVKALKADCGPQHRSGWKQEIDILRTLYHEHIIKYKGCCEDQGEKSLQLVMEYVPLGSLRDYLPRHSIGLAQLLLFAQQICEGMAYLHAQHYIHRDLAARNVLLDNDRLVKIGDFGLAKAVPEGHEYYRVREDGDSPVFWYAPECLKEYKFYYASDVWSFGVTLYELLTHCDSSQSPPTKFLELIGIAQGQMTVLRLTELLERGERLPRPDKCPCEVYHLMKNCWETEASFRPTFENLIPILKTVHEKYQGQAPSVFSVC
Chain of RPS6KA5 KD1 (human) (O75582 whole entry, looked up): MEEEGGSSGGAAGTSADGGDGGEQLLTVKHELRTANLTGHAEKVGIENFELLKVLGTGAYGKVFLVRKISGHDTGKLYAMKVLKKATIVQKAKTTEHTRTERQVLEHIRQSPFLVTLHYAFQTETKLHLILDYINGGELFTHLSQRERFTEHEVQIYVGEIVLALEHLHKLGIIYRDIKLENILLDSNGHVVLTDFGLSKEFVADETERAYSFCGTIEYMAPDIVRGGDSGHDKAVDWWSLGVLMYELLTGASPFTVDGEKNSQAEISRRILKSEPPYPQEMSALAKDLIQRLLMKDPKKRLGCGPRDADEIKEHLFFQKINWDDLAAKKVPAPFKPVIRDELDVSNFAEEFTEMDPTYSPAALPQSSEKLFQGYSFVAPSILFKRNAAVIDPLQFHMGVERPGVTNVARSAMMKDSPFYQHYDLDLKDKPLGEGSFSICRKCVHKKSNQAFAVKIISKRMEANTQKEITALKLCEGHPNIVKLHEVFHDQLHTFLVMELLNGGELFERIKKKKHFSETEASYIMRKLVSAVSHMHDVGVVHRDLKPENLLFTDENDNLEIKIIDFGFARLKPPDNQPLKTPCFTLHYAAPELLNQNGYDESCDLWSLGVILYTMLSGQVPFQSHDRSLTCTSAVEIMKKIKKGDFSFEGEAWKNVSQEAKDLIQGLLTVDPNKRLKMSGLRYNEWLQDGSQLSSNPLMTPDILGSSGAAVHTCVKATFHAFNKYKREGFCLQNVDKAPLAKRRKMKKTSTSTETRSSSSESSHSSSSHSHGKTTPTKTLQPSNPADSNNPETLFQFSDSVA

Compound: COc1cc2ncnc(Oc3cccc(NC(=O)Nc4cc(C(C)(C)C(F)(F)F)on4)c3)c2cc1OC
- Kd [1]: 11 µM
- Kd [2]: 13 µM
- Kd [3]: 16 µM
- Kd [4]: 0.092 µM
- Kd [5]: 0.24 µM
- Kd [6]: 29 µM
- Kd [7]: 0.036 µM
- Kd [8]: 1.1 µM
- Kd [9]: 35 µM
- Kd [10]: 37 µM
- Kd [11]: 0.0093 µM
- Kd [12]: 1 µM
- Kd [13]: 0.27 µM
- Kd [14]: 8.3 µM
- Kd [15]: 37 µM
- Kd [16]: 0.034 µM
- Kd [17]: 0.086 µM
- Kd [18]: 4.4 µM
- Kd [19]: 26 µM
- Kd [20]: 28 µM
- Kd [21]: 0.12 µM
- Kd [22]: 34 µM
- Kd [23]: 0.15 µM
- Kd [24]: 14 µM
- Kd [25]: 2.6 µM
- Kd [26]: 0.036 µM
- Kd [27]: 37 µM
- Kd [28]: 0.015 µM
- Kd [29]: 2.1 µM
- Kd [30]: 16 µM
- Kd [31]: 20 µM
- Kd [32]: 29 µM
- Kd [33]: 13 µM
- Kd [34]: 0.011 µM
- Kd [35]: 1.6 µM
- Kd [36]: 26 µM
- Kd [37]: 0.056 µM
- Kd [38]: 7.1 µM
- Kd [39]: 11 µM
- Kd [40]: 0.071 µM
